SMILES: CC(=O)OCC1=CCc2c(cc(O)c3c(=O)cc(C)oc23)OC1 [Compound 2, 8,11-Dihydro-5-hydroxy-12-hydroxymethyl-2-methyl-4H-pyrano[2,3-g][1]benzoxepin-4-one 12-O-acetate]
- Cytotoxicity LC50 (Vero monkey kidney cells): > 200 µg/mL
- Cytotoxicity LC50 (human liver (C3A) cells): > 200 µg/mL
